# Assay results as given in US20140303092A1 (CHIMERIX, INC., priority 2011, published 2014).
# Assay: Study HDP-CDV-201: safety and tolerability (adverse events, laboratory abnormalities, discontinuations)
# Format: in vivo, human (adult allogeneic HSCT recipients)
# Details: for ALT, subject 4090 / AST, subject 4090 / Alk Phos, subject 4090 / Bilirubin, subject 4090: 100 BIW
# Method: Clinical Studies of HDP-CDV were performed and described in detail in the following Examples. For example, HDP-CDV-201 is a placebo-controlled, dose-escalating trial in HSCT CMV (R+) recipients, evaluating the ability of HDP-CDV to prevent or control CMV infection was carried out. Five cohorts were established in which participants or subjects received either placebo or the HDP-CDV orally, in doses ranging from 40 mg weekly (QW) to 200 mg twice weekly (BIW). Subjects who were post-HSCT were enrolled at the time of engraftment and randomized to HDP-CDV or placebo (3 to 1 ratio) and received blinded therapy until approximately 100 day post-transplantation. HDP-CDV doses were 40 mg QW, 100 mg QW, 200 mg QW, 200 mg BIW and 100 mg BIW. Escalation to the next dose was decided by the data monitoring committee after review of the safety data from the previous Cohort. Subjects who developed CMV disease or CMV infection requiring pre-emptive therapy with local standard of care were discontinued from blinded therapy and followed for 4 weeks. Subjects who completed treatment with blinded therapy were followed for 8 weeks post-therapy.
# Data from Study HDP-CDV-201 also provided characterization of the safety and tolerability profile of HDP-CDV when administered for the prevention or control of CMV infection in high risk (R^+) post-HSCT adult subjects.
# The Safety population (SAFETY) included all randomized subjects who took at least one dose of study treatment. This population was used to summarize safety outcomes based on the treatment actually received, in cases where a subject was treated contrary to the randomization schedule.
# The safety and tolerability profile of HDP-CDV, including subject demographics and Baseline characteristics; the AE profile; and laboratory abnormalities of interest were analyzed in the cohorts followed in this investigation.
# Subjects completing the treatment period received a full course of study medication; those completing the entire study attended visits through 8 weeks of follow up. Subjects who discontinued treatment may have done so for protocol specified reasons (e.g. development of clinically significant CMV infection requiring preemptive treatment with excluded anti-CMV medications) or for other reasons (e.g., withdrawal, adverse events, loss to follow-up). The disposition of subjects in Study HDP-CDV-201 during the double-blind, placebo-controlled treatment period (through Week 11) is listed by dosing Cohort in TABLE 23.
# Adverse events were examined by severity to ensure that all safety signals were identified in this study population. Because of the frequency of events in HSCT recipients, particular attention was given to evaluation of Grade 3 […], 4 (severe), and 5 (fatal) adverse events.
# Only those preferred terms for which at least one Grade 3 or higher event was experienced in any treatment group are listed. Cytomegalovirus-related AEs are excluded from this analysis.
# HDP-CDV is a lipid conjugate of CDV. Because CDV is known to have adverse effects on renal function and bone marrow, decreased GFR and persistent neutropenia were identified as AEs of special interest. Key renal and hematological (TABLE 30) laboratory parameters were measured and listed below by Study HDP-CDV-201 treatment groups. TABLE 30 includes abnormal levels of serum creatinine, neutrophils, platelets, WBCs, and hemoglobin and includes data at Screening and during the treatment period.
# A common metric for unit based dosing of medications is by weight (mg/kg). When the distribution of weights was examined for all subjects participating in the study, the median was 78 kg and the lower 25th percentile weight was approximately 65 kg, which translates to a cut-off of ˜3 mg/kg for a 200 mg total weekly dose. Based upon this approach, a cut-off of 3 mg/kg was used to assess the frequency of diarrhea and associated GI AEs reported for the subjects in Cohorts 3 or 4a (TABLE 40).
smiles,measurement,setting,value
CCCCCCCCCCCCCCCCOCCCOP(=O)(O)COC(CO)Cn1ccc(N)nc1=O (stereo not drawn) [HDP-CDV],"TEAE LFT Abnormal, Grade 4",200 mg QW,0
same,"TEAE LFT Abnormal, Grade 5",200 mg QW,0
same,"TEAE Leukocytosis, Frequency",200 mg QW,2 (5.1%)
same,"TEAE Leukocytosis, Grade 2",200 mg QW,0
same,"TEAE Leukocytosis, Grade 3",200 mg QW,0
same,"TEAE Leukocytosis, Grade 4",200 mg QW,0
same,"TEAE Leukocytosis, Grade 5",200 mg QW,0
same,"TEAE Nausea, Frequency",200 mg QW,11 (28.2%)
same,"TEAE Nausea, Grade 2",200 mg QW,4 (10.3%)
same,"TEAE Nausea, Grade 3",200 mg QW,1 (2.6%)
same,"TEAE Nausea, Grade 4",200 mg QW,0
same,"TEAE Nausea, Grade 5",200 mg QW,0
same,"TEAE Neutropenia, Frequency",200 mg QW,4 (10.3%)
same,"TEAE Neutropenia, Grade 2",200 mg QW,1 (2.6%)
same,"TEAE Neutropenia, Grade 3",200 mg QW,3 (7.7%)
same,"TEAE Neutropenia, Grade 4",200 mg QW,0
same,"TEAE Neutropenia, Grade 5",200 mg QW,0
same,"TEAE Pneumonia, Frequency",200 mg QW,0
same,"TEAE Pneumonia, Grade 2",200 mg QW,0
same,"TEAE Pneumonia, Grade 3",200 mg QW,0
same,"TEAE Pneumonia, Grade 4",200 mg QW,0
same,"TEAE Pneumonia, Grade 5",200 mg QW,0
same,"TEAE Pyrexia, Frequency",200 mg QW,7 (17.9%)
same,"TEAE Pyrexia, Grade 2",200 mg QW,2 (5.1%)
same,"TEAE Pyrexia, Grade 3",200 mg QW,2 (5.1%)
same,"TEAE Pyrexia, Grade 4",200 mg QW,0
same,"TEAE Pyrexia, Grade 5",200 mg QW,0
same,"TEAE Renal Failure, Frequency",200 mg QW,0
same,"TEAE Renal Failure, Grade 2",200 mg QW,0
same,"TEAE Renal Failure, Grade 3",200 mg QW,0
same,"TEAE Renal Failure, Grade 4",200 mg QW,0
same,"TEAE Renal Failure, Grade 5",200 mg QW,0
same,"TEAE Staphylococcal Bacteremia, Frequency",200 mg QW,1 (2.6%)
same,"TEAE Staphylococcal Bacteremia, Grade 2",200 mg QW,0
same,"TEAE Staphylococcal Bacteremia, Grade 3",200 mg QW,1 (2.6%)
same,"TEAE Staphylococcal Bacteremia, Grade 4",200 mg QW,0
same,"TEAE Staphylococcal Bacteremia, Grade 5",200 mg QW,0
same,"TEAE Thrombocytopenia, Frequency",200 mg QW,0
same,"TEAE Thrombocytopenia, Grade 2",200 mg QW,0
same,"TEAE Thrombocytopenia, Grade 3",200 mg QW,0
same,"TEAE Thrombocytopenia, Grade 4",200 mg QW,0
same,"TEAE Thrombocytopenia, Grade 5",200 mg QW,0
same,"TEAE Vomiting, Frequency",200 mg QW,6 (15.4%)
same,"TEAE Vomiting, Grade 2",200 mg QW,1 (2.6%)
same,"TEAE Vomiting, Grade 3",200 mg QW,1 (2.6%)
same,"TEAE Vomiting, Grade 4",200 mg QW,0
same,"TEAE Vomiting, Grade 5",200 mg QW,0
same,subjects requiring treatment with steroids during the study,200 mg QW,59%
same,proportion of subjects with Grade 3 or higher ALT,200 mg QW (6 of 39),15.8%
same,subjects who discontinued study medications,"200 mg QW, fasted state",54%
same,Subjects Reporting Diarrhea as an AE,"200 mg QW, n = 39",13 (33.3%)
same,Discontinuation: Death,"200 mg QW, active treatment period",3 (7.7%) Subject n (%)
same,Discontinuation: Adverse event,"200 mg QW, active treatment period through Week 11",7 (17.9%) Subject n (%)
same,subjects reporting SAEs involving the gastrointestinal tract,"400 mg per week, given as 200 mg BIW",63%
same,"ALT, subject 4090",Treatment Wk 8,445 U/L
same,"AST, subject 4090",Treatment Wk 8,195 U/L
same,"Alk Phos, subject 4090",Treatment Wk 8,Normal
same,"Bilirubin, subject 4090",Treatment Wk 8,44 µmol/L
same,"ALT, subject 4090",Treatment Wk 10,792 U/L
same,"AST, subject 4090",Treatment Wk 10,312 U/L
same,"Alk Phos, subject 4090",Treatment Wk 10,Normal
same,"Bilirubin, subject 4090",Treatment Wk 10,Normal
same,"ALT, subject 4008","200 BIW, Posttreatment Wk 1",137 U/L
same,"AST, subject 4008","200 BIW, Posttreatment Wk 1",Normal
same,"Bilirubin, subject 4008","200 BIW, Posttreatment Wk 1",48 µmol/L
same,"Alk Phos, subject 4008","200 BIW, Posttreatment Wk 1, Previously elevated",117 U/L
same,"ALT, subject 3001","200 QW, Post Treatment Wk 1",375 U/L
same,"AST, subject 3001","200 QW, Post Treatment Wk 1",164 U/L
same,"Bilirubin, subject 3001","200 QW, Post Treatment Wk 1",89 µmol/L
same,"Alk Phos, subject 3001","200 QW, Post Treatment Wk 1, elevated",337 U/L
same,"ALT, subject 3044","200 QW, Post Treatment Wk 4",227 U/L
same,"AST, subject 3044","200 QW, Post Treatment Wk 4",Normal
same,"Bilirubin, subject 3044","200 QW, Post Treatment Wk 4",50 µmol/L
same,"Alk Phos, subject 3044","200 QW, Post Treatment Wk 4, Previously elevated",174 U/L
same,"Grade of hepatobiliary AE symptomatic gallstones, subject 1016",Cohort 1,3
same,"Grade of hepatobiliary AE worsening hyperbilirubinemia, subject 1003",Cohort 1,4
same,"Outcome of hepatobiliary AE symptomatic gallstones, subject 1016",Cohort 1,recovered/resolved
same,"Outcome of hepatobiliary AE worsening hyperbilirubinemia, subject 1003",Cohort 1,not recovered/not
same,"Relationship of hepatobiliary AE symptomatic gallstones, subject 1016",Cohort 1,not related
same,"Relationship of hepatobiliary AE worsening hyperbilirubinemia, subject 1003",Cohort 1,not related
same,subjects discontinued due to neutropenia,Cohort 1,0 subject(s)
same,"ALT (Screening) >3 × ULN-5 × ULN, subjects","Cohort 1, 40 mg QW",0
same,"ALT (Screening) >5 × ULN-10 × ULN, subjects","Cohort 1, 40 mg QW",0
same,"ALT (Screening) >10 × ULN-20 × ULN, subjects","Cohort 1, 40 mg QW",0
same,"ALT (Screening) >20 × ULN, subjects","Cohort 1, 40 mg QW",0
same,"ALT (any time during therapy) >3 × ULN-5 × ULN, subjects","Cohort 1, 40 mg QW",2 (8.7%)
same,"ALT (any time during therapy) >5 × ULN-10 × ULN, subjects","Cohort 1, 40 mg QW",1 (4.3%)
same,"ALT (any time during therapy) >10 × ULN-20 × ULN, subjects","Cohort 1, 40 mg QW",0
same,"ALT (any time during therapy) >20 × ULN, subjects","Cohort 1, 40 mg QW",0
same,"AST (Screening) >3 × ULN-5 × ULN, subjects","Cohort 1, 40 mg QW",0
same,"AST (Screening) >5 × ULN-10 × ULN, subjects","Cohort 1, 40 mg QW",0
same,"AST (Screening) >10 × ULN-20 × ULN, subjects","Cohort 1, 40 mg QW",0
same,"AST (Screening) >20 × ULN, subjects","Cohort 1, 40 mg QW",0
same,"AST (any time during therapy) >3 × ULN-5 × ULN, subjects","Cohort 1, 40 mg QW",1 (4.3%)
same,"AST (any time during therapy) >5 × ULN-10 × ULN, subjects","Cohort 1, 40 mg QW",0
same,"AST (any time during therapy) >10 × ULN-20 × ULN, subjects","Cohort 1, 40 mg QW",0
same,"AST (any time during therapy) >20 × ULN, subjects","Cohort 1, 40 mg QW",0
same,"Alkaline Phosphatase (Screening) >2.5-5.0 × ULN, subjects","Cohort 1, 40 mg QW",0
same,"Alkaline Phosphatase (Screening) >5.0-20.0 × ULN, subjects","Cohort 1, 40 mg QW",0
same,"Alkaline Phosphatase (Screening) >20.0 × ULN, subjects","Cohort 1, 40 mg QW",0
same,"Alkaline Phosphatase (Screening) >ULN-[…] ULN, subjects","Cohort 1, 40 mg QW",6 (24.0%)
same,"Alkaline Phosphatase (any time during therapy) >2.5-5.0 × ULN, subjects","Cohort 1, 40 mg QW",0
same,"Alkaline Phosphatase (any time during therapy) >5.0-20.0 × ULN, subjects","Cohort 1, 40 mg QW",0
same,"Alkaline Phosphatase (any time during therapy) >20.0 × ULN, subjects","Cohort 1, 40 mg QW",0
same,"Alkaline Phosphatase (any time during therapy) >ULN-[…] ULN, subjects","Cohort 1, 40 mg QW",6 (26.1%)
same,"GI AE Leading to Study Drug Discontinuation: Abdominal pain, subjects","Cohort 1, 40 mg QW",0
same,"GI AE Leading to Study Drug Discontinuation: Diarrhoea, subjects","Cohort 1, 40 mg QW",0
same,"GI AE Leading to Study Drug Discontinuation: Dyspepsia, subjects","Cohort 1, 40 mg QW",0
same,"GI AE Leading to Study Drug Discontinuation: Nausea, subjects","Cohort 1, 40 mg QW",0
same,"GI AE Leading to Study Drug Discontinuation: Vomiting, subjects","Cohort 1, 40 mg QW",0
same,GI AEs Leading to Study Drug Discontinuation: Total subjects discontinued,"Cohort 1, 40 mg QW",0
